Assay results published in patent US6358885B1, “Substituted phenylheterocyclic herbicides” (Mississippi State University, priority 1992, dated 2002).

Experiments:
Assay in all cases: Test B preemergence/postemergence greenhouse plant response rating 0 to 10
Settings in all cases: 0 to 10 scale
barley = type: in vivo, Hordeum vulgare
Summary of the method: (§1)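 Planted seeds are treated preemergence with compound dissolved in a non-phytotoxic solvent, while postemergence applications go onto plants of two to eighteen cm. Plants stay in the greenhouse twelve to sixteen days and are then rated visually relative to controls.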

barnyardgrass = type: in vivo, Echinochloa crus-galli
Summary of the method: as §1

bedstraw = type: in vivo, Galium aparine
Summary of the method: as §1

blackgrass = type: in vivo, Alopecurus myosuroides
Summary of the method: as §1

cheatgrass = type: in vivo, Bromus secalinus
Summary of the method: as §1

chickweed = type: in vivo, Stellaria media
Summary of the method: as §1

cocklebur = type: in vivo, Xanthium pensylvanicum
Summary of the method: as §1

corn = type: in vivo, Zea mays
Summary of the method: as §1

cotton = type: in vivo, Gossypium hirsutum
Summary of the method: as §1

crabgrass = type: in vivo, Digitaria spp.
Summary of the method: as §1

giant foxtail = type: in vivo, Setaria faberii
Summary of the method: as §1

lambsquarters = type: in vivo, Chenopodium album
Summary of the method: as §1

morningglory = type: in vivo, Ipomoea hederacea
Summary of the method: as §1

rape = type: in vivo, Brassica napus
Summary of the method: as §1

rice = type: in vivo, Oryza sativa
Summary of the method: as §1

sorghum = type: in vivo, Sorghum bicolor
Summary of the method: as §1

soybean = type: in vivo, Glycine max
Summary of the method: as §1

sugar beet = type: in vivo, Beta vulgaris
Summary of the method: as §1

velvetleaf = type: in vivo, Abutilon theophrasti
Summary of the method: as §1

wheat = type: in vivo, Triticum aestivum
Summary of the method: as §1

wild buckwheat = type: in vivo, Polygonum convolvulus
Summary of the method: as §1

wild oat = type: in vivo, Avena fatua
Summary of the method: as §1

purple nutsedge = type: in vivo, Cyperus rotundus
Summary of the method: as §1

For CC(C#N)Oc1cc(-c2nn3c(c2Cl)CCCC3)c(F)cc1Cl (centres unmarked) [Compound 60], the “Plant response rating, Barley” value (barley; POSTEMERGENCE, Rate 10 g/ha) was 3, the “Plant response rating, Barley” value (barley; POSTEMERGENCE, Rate 50 g/ha) was 4 and the “Plant response rating, Barley” value (barley; PREEMERGENCE, Rate 10 g/ha) was 0. For the same compound, the “Plant response rating, Barley” value (barley; PREEMERGENCE, Rate 50 g/ha) was 0, the “Plant response rating, Barnyardgrass” value (barnyardgrass; POSTEMERGENCE, Rate 10 g/ha) was 3 and the “Plant response rating, Barnyardgrass” value (barnyardgrass; POSTEMERGENCE, Rate 50 g/ha) was 4. For the same compound, the “Plant response rating, Barnyardgrass” value (barnyardgrass; PREEMERGENCE, Rate 10 g/ha) was 0, the “Plant response rating, Barnyardgrass” value (barnyardgrass; PREEMERGENCE, Rate 50 g/ha) was 0 and the “Plant response rating, Bedstraw” value (bedstraw; POSTEMERGENCE, Rate 10 g/ha) was 7. The “Plant response rating, Bedstraw” value (bedstraw; POSTEMERGENCE, Rate 50 g/ha) was 9, the “Plant response rating, Bedstraw” value (bedstraw; PREEMERGENCE, Rate 50 g/ha) was 6 and the “Plant response rating, Blackgrass” value (blackgrass; POSTEMERGENCE, Rate 10 g/ha) was 3. The “Plant response rating, Blackgrass” value (blackgrass; POSTEMERGENCE, Rate 50 g/ha) was 3, the “Plant response rating, Blackgrass” value (blackgrass; PREEMERGENCE, Rate 10 g/ha) was 0 and the “Plant response rating, Blackgrass” value (blackgrass; PREEMERGENCE, Rate 50 g/ha) was 0. For the same compound, the “Plant response rating, Cheatgrass” value (cheatgrass; POSTEMERGENCE, Rate 10 g/ha) was 3, the “Plant response rating, Cheatgrass” value (cheatgrass; POSTEMERGENCE, Rate 50 g/ha) was 3 and the “Plant response rating, Cheatgrass” value (cheatgrass; PREEMERGENCE, Rate 10 g/ha) was 0. For the same compound, the “Plant response rating, Cheatgrass” value (cheatgrass; PREEMERGENCE, Rate 50 g/ha) was 2, the “Plant response rating, Chickweed” value (chickweed; POSTEMERGENCE, Rate 10 g/ha) was 3 and the “Plant response rating, Chickweed” value (chickweed; POSTEMERGENCE, Rate 50 g/ha) was 7. For the same compound, the “Plant response rating, Chickweed” value (chickweed; PREEMERGENCE, Rate 50 g/ha) was 4, the “Plant response rating, Cocklebur” value (cocklebur; POSTEMERGENCE, Rate 10 g/ha) was 6 and the “Plant response rating, Cocklebur” value (cocklebur; POSTEMERGENCE, Rate 50 g/ha) was 8. For the same compound, the “Plant response rating, Cocklebur” value (cocklebur; PREEMERGENCE, Rate 10 g/ha) was 0, the “Plant response rating, Cocklebur” value (cocklebur; PREEMERGENCE, Rate 50 g/ha) was 0 and the “Plant response rating, Corn” value (corn; POSTEMERGENCE, Rate 10 g/ha) was 3. For the same compound, the “Plant response rating, Corn” value (corn; POSTEMERGENCE, Rate 50 g/ha) was 3, the “Plant response rating, Corn” value (corn; PREEMERGENCE, Rate 50 g/ha) was 0 and the “Plant response rating, Cotton” value (cotton; POSTEMERGENCE, Rate 10 g/ha) was 9. For the same compound, the “Plant response rating, Cotton” value (cotton; POSTEMERGENCE, Rate 50 g/ha) was 10, the “Plant response rating, Cotton” value (cotton; PREEMERGENCE, Rate 10 g/ha) was 0 and the “Plant response rating, Cotton” value (cotton; PREEMERGENCE, Rate 50 g/ha) was 5. The “Plant response rating, Crabgrass” value (crabgrass; POSTEMERGENCE, Rate 10 g/ha) was 2, the “Plant response rating, Crabgrass” value (crabgrass; POSTEMERGENCE, Rate 50 g/ha) was 2 and the “Plant response rating, Crabgrass” value (crabgrass; PREEMERGENCE, Rate 10 g/ha) was 0. The “Plant response rating, Crabgrass” value (crabgrass; PREEMERGENCE, Rate 50 g/ha) was 0, the “Plant response rating, Giant foxtail” value (giant foxtail; POSTEMERGENCE, Rate 10 g/ha) was 3 and the “Plant response rating, Giant foxtail” value (giant foxtail; POSTEMERGENCE, Rate 50 g/ha) was 4. For the same compound, the “Plant response rating, Giant foxtail” value (giant foxtail; PREEMERGENCE, Rate 10 g/ha) was 0, the “Plant response rating, Giant foxtail” value (giant foxtail; PREEMERGENCE, Rate 50 g/ha) was 2 and the “Plant response rating, Lambsquarter” value (lambsquarters; POSTEMERGENCE, Rate 10 g/ha) was 10. For the same compound, the “Plant response rating, Lambsquarter” value (lambsquarters; POSTEMERGENCE, Rate 50 g/ha) was 10, the “Plant response rating, Lambsquarter” value (lambsquarters; PREEMERGENCE, Rate 50 g/ha) was 9 and the “Plant response rating, Morningglory” value (morningglory; POSTEMERGENCE, Rate 10 g/ha) was 7. For the same compound, the “Plant response rating, Morningglory” value (morningglory; POSTEMERGENCE, Rate 50 g/ha) was 7, the “Plant response rating, Morningglory” value (morningglory; PREEMERGENCE, Rate 50 g/ha) was 3 and the “Plant response rating, Rape” value (rape; POSTEMERGENCE, Rate 10 g/ha) was 6. For the same compound, the “Plant response rating, Rape” value (rape; POSTEMERGENCE, Rate 50 g/ha) was 10, the “Plant response rating, Rape” value (rape; PREEMERGENCE, Rate 50 g/ha) was 6 and the “Plant response rating, Rice” value (rice; POSTEMERGENCE, Rate 10 g/ha) was 3. For the same compound, the “Plant response rating, Rice” value (rice; POSTEMERGENCE, Rate 50 g/ha) was 4, the “Plant response rating, Rice” value (rice; PREEMERGENCE, Rate 50 g/ha) was 1 and the “Plant response rating, Sorghum” value (sorghum; POSTEMERGENCE, Rate 10 g/ha) was 3. For the same compound, the “Plant response rating, Sorghum” value (sorghum; POSTEMERGENCE, Rate 50 g/ha) was 3, the “Plant response rating, Sorghum” value (sorghum; PREEMERGENCE, Rate 50 g/ha) was 2 and the “Plant response rating, Soybean” value (soybean; POSTEMERGENCE, Rate 10 g/ha) was 6. The “Plant response rating, Soybean” value (soybean; POSTEMERGENCE, Rate 50 g/ha) was 4, the “Plant response rating, Soybean” value (soybean; PREEMERGENCE, Rate 50 g/ha) was 0 and the “Plant response rating, Sugar beet” value (sugar beet; POSTEMERGENCE, Rate 10 g/ha) was 10. The “Plant response rating, Sugar beet” value (sugar beet; POSTEMERGENCE, Rate 50 g/ha) was 10, the “Plant response rating, Sugar beet” value (sugar beet; PREEMERGENCE, Rate 50 g/ha) was 9 and the “Plant response rating, Velvetleaf” value (velvetleaf; POSTEMERGENCE, Rate 10 g/ha) was 7. For the same compound, the “Plant response rating, Velvetleaf” value (velvetleaf; POSTEMERGENCE, Rate 50 g/ha) was 8, the “Plant response rating, Velvetleaf” value (velvetleaf; PREEMERGENCE, Rate 50 g/ha) was 6 and the “Plant response rating, Wheat” value (wheat; POSTEMERGENCE, Rate 10 g/ha) was 3. For the same compound, the “Plant response rating, Wheat” value (wheat; POSTEMERGENCE, Rate 50 g/ha) was 4, the “Plant response rating, Wheat” value (wheat; PREEMERGENCE, Rate 50 g/ha) was 2 and the “Plant response rating, Wild buckwheat” value (wild buckwheat; POSTEMERGENCE, Rate 10 g/ha) was 9. The “Plant response rating, Wild buckwheat” value (wild buckwheat; POSTEMERGENCE, Rate 50 g/ha) was 10, the “Plant response rating, Wild buckwheat” value (wild buckwheat; PREEMERGENCE, Rate 50 g/ha) was 7 and the “Plant response rating, Wild oat” value (wild oat; POSTEMERGENCE, Rate 10 g/ha) was 2. For the same compound, the “Plant response rating, Wild oat” value (wild oat; POSTEMERGENCE, Rate 50 g/ha) was 4, the “Plant response rating, Wild oat” value (wild oat; PREEMERGENCE, Rate 50 g/ha) was 3 and the “Plant response rating, Nutsedge” value (purple nutsedge; POSTEMERGENCE, Rate 10 g/ha) was 1. For the same compound, the “Plant response rating, Nutsedge” value (purple nutsedge; POSTEMERGENCE, Rate 50 g/ha) was 2 and the “Plant response rating, Nutsedge” value (purple nutsedge; PREEMERGENCE, Rate 50 g/ha) was 0.
